# Measurements from patent US5929063A, “Mercapto and seleno derivatives as inhibitors of nitric oxide synthase” (priority 1995, dated 1999).
# Entries after “also recorded” stand apart in the source; their conditions may differ. Like-named read-outs stand apart in the source and are kept apart here.
# What was measured:
# [1] = biological target: T1, bNOS (Rattus norvegicus, UniProt P29476); assay: bNOS activity in homogenates of whole rat brains; type: biochemical
# T1 construct: bNOS activity was measured using similar methods in homogenates of whole rat brains; from tissue; host or cells: homogenate of whole rat brains
# T1 sequence (P29476 whole entry): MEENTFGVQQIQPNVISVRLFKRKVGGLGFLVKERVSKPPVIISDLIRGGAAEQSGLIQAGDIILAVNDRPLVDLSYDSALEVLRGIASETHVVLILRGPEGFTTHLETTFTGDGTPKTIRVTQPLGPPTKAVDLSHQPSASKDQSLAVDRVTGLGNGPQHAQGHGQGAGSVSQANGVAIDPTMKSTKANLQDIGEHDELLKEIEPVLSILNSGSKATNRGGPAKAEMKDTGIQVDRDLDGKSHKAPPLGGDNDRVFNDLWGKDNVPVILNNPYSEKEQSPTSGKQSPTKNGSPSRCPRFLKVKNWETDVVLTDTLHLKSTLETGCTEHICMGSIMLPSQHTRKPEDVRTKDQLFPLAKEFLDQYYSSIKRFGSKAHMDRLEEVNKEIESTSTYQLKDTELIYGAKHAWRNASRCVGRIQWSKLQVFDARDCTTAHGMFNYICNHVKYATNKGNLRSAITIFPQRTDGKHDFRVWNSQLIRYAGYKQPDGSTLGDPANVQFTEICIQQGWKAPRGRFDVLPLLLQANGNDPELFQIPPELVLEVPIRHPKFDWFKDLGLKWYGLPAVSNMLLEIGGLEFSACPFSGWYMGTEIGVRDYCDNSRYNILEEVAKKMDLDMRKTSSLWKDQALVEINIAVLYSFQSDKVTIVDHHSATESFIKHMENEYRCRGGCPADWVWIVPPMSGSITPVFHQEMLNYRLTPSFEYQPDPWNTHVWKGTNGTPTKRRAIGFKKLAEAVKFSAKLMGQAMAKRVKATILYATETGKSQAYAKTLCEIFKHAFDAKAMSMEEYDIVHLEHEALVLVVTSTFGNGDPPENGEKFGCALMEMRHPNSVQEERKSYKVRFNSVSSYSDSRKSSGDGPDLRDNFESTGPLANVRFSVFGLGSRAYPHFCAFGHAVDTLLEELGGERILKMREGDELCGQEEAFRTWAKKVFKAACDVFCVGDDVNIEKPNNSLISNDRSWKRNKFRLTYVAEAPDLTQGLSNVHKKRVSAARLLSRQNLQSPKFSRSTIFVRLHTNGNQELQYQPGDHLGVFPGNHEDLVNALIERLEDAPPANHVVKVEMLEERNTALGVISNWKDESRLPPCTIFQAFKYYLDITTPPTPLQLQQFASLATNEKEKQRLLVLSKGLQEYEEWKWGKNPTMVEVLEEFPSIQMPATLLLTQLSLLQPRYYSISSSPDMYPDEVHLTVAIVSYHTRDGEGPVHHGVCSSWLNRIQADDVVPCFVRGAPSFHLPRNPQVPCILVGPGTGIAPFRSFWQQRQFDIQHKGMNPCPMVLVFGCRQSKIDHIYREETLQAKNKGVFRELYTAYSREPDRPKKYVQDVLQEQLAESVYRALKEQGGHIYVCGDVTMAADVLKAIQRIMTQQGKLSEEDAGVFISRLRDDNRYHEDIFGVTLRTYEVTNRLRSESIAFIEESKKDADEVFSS
# [2] = tested on: J774 macrophages; assay: Nitrite production by immunostimulated J774 macrophages (endotoxin 24 h, Griess); type: cell-based, mouse; conditions: for EC50: Mus musculus, J774, endotoxin 10 μg/ml, 24 h (Table 1), read-out: EC50 for the inhibition of nitrite production by stimulated J774 macrophages
# Experimental: (§1) This example illustrates the effect of selected mercapto derivatives on endotoxin-induced nitrite formation in J774.2 macrophages and on IL-1 gamma-interferon induced nitrite formation in cultured rat arctic smooth muscle cells. J774 macrophage cell lines were obtained from the American Type Culture Collection (ATCC) and were grown using standard methods in Dulbecco's Modified Eagle Medium (DMEM) supplemented with 10% fetal bovine serum, glutamine, penicillin (10,000 U/l) and streptomycin (10,000 U/l). Rat aortic smooth muscle cells (RASM) from Wistar rats were isolated by enzymatic dissociation using standard methods. The cells were positively identified as smooth muscle by indirect immunofluorescent staining for a-actin, using mouse anti-α-actin antibody and anti-mouse IgG fluorescein isothiocyanate (FITC) conjugate. RASM cells were grown in T-75 tissue culture flasks in 50% F12 nutrient medium and 50% Dulbecco's Modified Eagle Medium supplemented with 10% fetal bovine serum, glutamine, penicillin (10,000 U/l) and streptomycin (10,000 U/l). Cells were grown in 96-well plates for measure of nitrite production and cell viability. J774 macrophages were treated with endotoxin (10 μg/ml) for 24 hours; smooth muscle cells were treated with IL-1 (100 U/ml) and gamma-interferon (50 U/ml) for 48 hours.
# Concentration of nitrite, the degradation product of NO in the culture medium, was determined by mixing equal volumes of medium with the Griess reagent (1% sulfanilamide/0.1% naphthylethylenediamine dihydrochloride/2.5% H3 PO4). The mixture was incubated for 10 minutes at room temperature to form the chromophore, then optical densities (OD) were determined at 550 nm (OD550). NaNO2 was used as the standard. Spectrophotometric measurements were performed in a dual-wavelength spectrophotometer.
# [3] = biological target: T2, ecNOS (Bos taurus, UniProt P29473); assay: ecNOS activity from intimal scrapings of fresh bovine aortae (conversion of [3H]-L-arginine to [3H]-L-citrulline); type: biochemical
# T2 construct: the intimal surface of fresh bovine aortae was scraped and homogenized; from tissue; host or cells: homogenate of intimal scrapings of fresh bovine aortae
# Experimental: The intimal surface of fresh bovine aortae was scraped in the presence of homogenation buffer composed of 50 mM Tris-HCl, 0.1 mM ethylenediamine tetraacetic acid (EDTA) and 0.1 mM ethyleneglycol bis (beta-aminoethyl ether) (EGTA). Conversion of [^3 H]-L-arginine to [^3 H]-L-citrulline was measured in the homogenates as follows: cell homogenate (50 μl) was incubated in the presence of [^3 H]-L-arginine (10 μM, 5 kBq/tube), NADPH (2 mM), calmodulin (30 nM), tetrahydrobiopterin (5 μM) and calcium (2 mM) for 20 minutes at 37° C. in N-2-hydroxethyl piperazine-N-2-ethane sulfonic acid (HEPES) buffer (pH 7.5). Reactions were stopped by dilution with 1 ml of ice cold HEPES buffer (pH 5.5) containing EGTA (2 mM) and EDTA (2 mM). Reaction mixtures were applied to Dowex 50W (Na^+ form) columns and the eluted [^3 H]-L-citrulline activity was measured by scintillation counting. bNOS activity was measured using similar methods in homogenates of whole rat brains.
# For a preparation rich in ecNOS, the intimal surface of fresh bovine aortae was scraped and homogenized. The homogenization buffer was composed of 50 mM tris-HCL, 0.1 mM EDTA, 0.1 mM EGTA and 1 mM phenylmethylsulfonyl chloride (pH 7.4). Cell suspensions were homogenized in the homogenization buffer on ice using a Tissue Tearor 985-370 homogenizer (BioSpec Products, Racine, Wis.). Conversion of [^3 H]-L-arginine to [^3 H]-L-citrulline was measured in the homogenates as described in Example 3 above.
# [4] = tested on: J774 macrophages; assay: Mitochondrial respiration (MTT reduction), cell viability of immunostimulated J774 macrophages; type: cell-based, mouse
# Experimental: as §1
# Mitochondrial respiration, an indicator of cell viability, was assessed by the mitochondrial-dependent reduction of MTT [3-(4,5-dimethylthiazol-2-yl)-2,5-diphenyltetrazolium bromide] to formazan. Cells in 96-well plates were incubated (37° C.) with MTT (0.2 mg/ml for 60 minutes). Culture medium was removed by aspiration and the cells solubilized in dimethylsulfoxide (DMSO) (100 μl). The extent of reduction of MTT to formazan within cells was quantitated by measurement of OD550 using a microplate reader. The calibration curve for the reduction of MTT to formazan was prepared in DMSO. Formazan production by cells was expressed as a percentage of the values obtained from untreated cells.
# [5] = biological target: T3, iNOS (Rattus norvegicus, UniProt Q06518); assay: Inhibition of iNOS activity in tissue homogenates (Table 2); type: biochemical; design: bNOS in tissue homogenates; from tissue; host or cells: tissue homogenate; conditions: for EC50: iNOS (Table 2)
# [6] = tested on: J774.2 macrophages; assay: Nitrite production in immunostimulated J774.2 macrophages (E.coli LPS + murine gamma-interferon, 24 h); type: cell-based, mouse
# Experimental: This example illustrates the effect of selected mercapto and seleno derivatives on nitrite production in J774.2 immunostimulated macrophages. The J774.2 mouse macrophage cell line was obtained from the ATCC and was cultured in DMEM with 4×10^-3 M L-glutamine and 10% fetal calf serum. Cells were cultured in 96-well plates with 200 μl culture medium until they reached 60-80% confluence. To induce INOS, fresh culture medium containing E.coli LPS (10 μg/ml) and murine gamma-interferon (IFN)(50 U/ml) was added. Nitrite accumulation in the cell culture medium in the absence or presence of various inhibitors was measured after 24 hours. Nitrite production, an indicator of NO synthesis, was measured in the supernatant of J774.2 macrophages by the Greiss reaction as described in Example 1 above.
# This Example illustrates the effect of selected seleno derivatives on endotoxin-induced nitrite formation in J774.2 macrophages. The mouse macrophage cell line J774.2 obtained from the ATCC was cultured in DMEM with 4×10^-3 M L-glutamine and 10% fetal calf serum. Cells were cultured in 96-well plates with 200 μl culture medium until they reached 60-80% confluence. To induce iNOS, fresh culture medium containing E.coli LPS (10 μg/ml) and murine gamma-interferon (IFN)(50 U/ml) were added. Nitrite accumulation in the cell culture medium in the absence or presence of various inhibitors was measured after 24 hours. There was no detectable nitrite production by the J774.2 macrophages in the absence of immunostimulation. However, in the presence of IFN and LPS, nitrite concentration of the medium increased to 17±2 μM in the absence of inhibitor.
# [7] = biological target: T3, iNOS; assay: iNOS activity in lung homogenates from rats treated with bacterial endotoxin; type: biochemical; design: Lungs were obtained from rats which had been treated with bacterial endotoxin; from tissue; host or cells: lung homogenate from endotoxin-treated rats
# Experimental: This Example illustrates the effect of selected mercapto and seleno derivatives on iNOS activity in lung homogenates prepared from rats treated with endotoxin. […] The homogenization buffer was composed of 50 mM tris-HCL, 0.1 mM EDTA, 0.1 mM EGTA and 1 mM phenylmethylsulfonyl chloride (pH 7.4). Cell suspensions were homogenized in the homogenization buffer on ice using a Tissue Tearor 985-370 homogenizer (BioSpec Products, Racine, Wis.).
# [8] = ecNOS (Table 2), read-out: EC50 for inhibition of ecNOS activity in tissue homogenates
structure (smiles),measurement,setting,value
"N=C(N)NCCCS [MPG, mercaptopropylguanidine]",EC50,[1],80 µM
same,EC50,[2],15 µM
same,EC50,[3]; [8],4 µM
same,cellular viability,[4]; 1 mM,a slight reduction in viability was observed
same,cellular viability,[4]; effective doses 1-100 μM,did not decrease cellular viability
same,EC50,[5],7 µM
CCSCCNC(=N)N [S-ethyl-MEG],EC50,[1],460 µM
same,EC50,[2],328 µM
same,"inhibition of nitrite production/accumulation, in words",[2]; immunostimulated J774 macrophages,inhibitors of nitrite accumulation
same,"inhibition of ecNOS activity, in words",[3],less potent on ecNOS
same,EC50,[3]; [8],850 µM
same,"inhibition of iNOS activity, in words",[5],relative potent inhibitors of iNOS activity
same,EC50,[5],30 µM
"CSCCNC(=N)N [S-methyl-MEG, S-methyl-mercaptoethylguanidine]",EC50,[1],8 µM
same,EC50,[2],80 µM
same,EC50,[3]; [8],43 µM
same,EC50,[5],1.4 µM
"N=C(N)NCC[SeH] [SEG, selenoethylguanidine]",EC50,[3],600 µM
same,"inhibition of ecNOS activity, in words",[3],inhibited ecNOS activity less strongly than the L-NMA
same,"inhibition of nitrite production, in words",[6]; IFN and LPS,dose-dependent inhibition of nitrite production; also recorded: dose-dependently inhibited nitrite production
same,potency relative to reference compound L-NMA,[6]; IFN and LPS,higher than the reference compound L-NMA
same,activity at 1000 µM,"[6]; Mus musculus, J774.2, 24 h, inhibitor concentration -3.000 log M (Table 3), read-out: NITRITE (% OF CONTROL)",0%
same,activity at 100 µM,"[6]; Mus musculus, J774.2, 24 h, inhibitor concentration -4.000 log M (Table 3), read-out: NITRITE (% OF CONTROL)",7%
same,activity at 100 µM,"[6]; Mus musculus, J774.2, 24 h, inhibitor concentration -4 log M (Table 6), read-out: NITRITE (% OF CONTROL)",14%
same,activity at 31.6 µM,"[6]; Mus musculus, J774.2, 24 h, inhibitor concentration -4.5 log M (Table 6), read-out: NITRITE (% OF CONTROL)",28%
same,activity at 10 µM,"[6]; Mus musculus, J774.2, 24 h, inhibitor concentration -5.000 log M (Table 3), read-out: NITRITE (% OF CONTROL)",50%
same,activity at 10 µM,"[6]; Mus musculus, J774.2, 24 h, inhibitor concentration -5 log M (Table 6), read-out: NITRITE (% OF CONTROL)",50%
same,activity at 3.16 µM,"[6]; Mus musculus, J774.2, 24 h, inhibitor concentration -5.5 log M (Table 6), read-out: NITRITE (% OF CONTROL)",94%
same,activity at 1 µM,"[6]; Mus musculus, J774.2, 24 h, inhibitor concentration -6.000 log M (Table 3), read-out: NITRITE (% OF CONTROL)",90%
same,activity at 1 µM,"[6]; Mus musculus, J774.2, 24 h, inhibitor concentration -6 log M (Table 6), read-out: NITRITE (% OF CONTROL)",100%
same,EC50,"[6]; Mus musculus, J774.2, read-out: EC50, inhibition of nitrite production",10 µM
same,EC50,[7],10 µM
same,selectivity for iNOS,[7]; iNOS vs ecNOS EC50 values,relative selectivity of SEG and GED for iNOS
same,iNOS ACTIVITY (%),[7]; inhibitor concentration -3.000 log M,0.0000%
same,iNOS ACTIVITY (%),[7]; inhibitor concentration -4.000 log M,15.000%
same,iNOS ACTIVITY (%),[7]; inhibitor concentration -5.000 log M,56.000%
same,iNOS ACTIVITY (%),[7]; inhibitor concentration -6.000 log M,86.000%
same,iNOS ACTIVITY (%),[7]; inhibitor concentration -7.000 log M,100.000%
same,"inhibition of iNOS activity, in words","[7]; lung homogenates, rats treated with endotoxin","inhibits iNOS activity, more strongly"
